The target in the first assay is human RORγt LBD fused to the DNA binding domain of the GAL4 protein (Homo sapiens (Human), UniProt P51449). Description: RORγt (LBD) reporter assay in HEK293T cells.
human RORγt LBD fused to the DNA binding domain of the GAL4 protein, sequence (P51449 258-518): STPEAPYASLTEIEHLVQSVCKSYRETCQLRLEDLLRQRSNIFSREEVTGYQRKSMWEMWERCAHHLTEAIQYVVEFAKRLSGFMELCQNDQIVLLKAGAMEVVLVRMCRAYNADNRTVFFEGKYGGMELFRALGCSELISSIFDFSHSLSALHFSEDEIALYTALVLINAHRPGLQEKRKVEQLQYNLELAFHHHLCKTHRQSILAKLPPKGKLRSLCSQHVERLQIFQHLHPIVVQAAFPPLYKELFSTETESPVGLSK
Conditions: not given
The class given is cell-based. On the set-up: RORγt (LBD) Reporter Assay, % inhibition: dose or concentration left out as unconfirmed. In general terms: In a reporter assay the amount or activity of a reporter protein is the signal.
`COc1nc2ccc(C(O)(c3ccc(C)nc3C)c3cnnn3C)cc2c(Cl)c1CC(C)C` (single isomer, unassigned) [Example 133b, (4-Chloro-3-isobutyl-2-methoxyquinolin-6-yl)(2,6-dimethylpyridin-3-yl)(1-methyl-1H-1,2,3-triazol-5-yl)methanol]: the “RORγt (LBD) Reporter Assay, % inhibition” value was 90%.

For `COc1nc2ccc(C(O)(c3ccc(C)nc3C)c3cnnn3C)cc2c(Cl)c1CC(C)C` (single isomer, unassigned) [Example 133c, (4-Chloro-3-isobutyl-2-methoxyquinolin-6-yl)(2,6-dimethylpyridin-3-yl)(1-methyl-1H-1,2,3-triazol-5-yl)methanol], the “RORγt (LBD) Reporter Assay, % inhibition” value stood at 98%.

For the molecule `COc1nc2ccc(C(O)(c3ccc(C)nc3C)c3cnnn3C)cc2c(Cl)c1C1CCCC1` (single isomer, unassigned) [Example 136b, (4-Chloro-3-cyclopentyl-2-methoxyquinolin-6-yl)(2,6-dimethylpyridin-3-yl)(1-methyl-1H-1,2,3-triazol-5-yl)methanol], the “RORγt (LBD) Reporter Assay, % inhibition” value came to 76%.

As to `COc1nc2ccc(C(O)(c3ccc(C)nc3C)c3cnnn3C)cc2c(Cl)c1C1CCCC1` (single isomer, unassigned) [Example 136c, (4-Chloro-3-cyclopentyl-2-methoxyquinolin-6-yl)(2,6-dimethylpyridin-3-yl)(1-methyl-1H-1,2,3-triazol-5-yl)methanol], the “RORγt (LBD) Reporter Assay, % inhibition” value was determined as 98%.

Turning to `COc1nc2ccc(C(O)(c3ccc(C)nc3C)c3cnnn3C)cc2c(Cl)c1CC(F)(F)F` (single isomer, unassigned) [Example 143b, [4-Chloro-2-methoxy-3-(2,2,2-trifluoroethyl)quinolin-6-yl](2,6-dimethylpyridin-3-yl)(1-methyl-1H-1,2,3-triazol-5-yl)methanol], the “RORγt (LBD) Reporter Assay, % inhibition” value worked out at 77%.

The assay is the same for the next values; noted with them: @ 6 μM.
Turning to `COCCOc1c(OC)nc2ccc(C(O)(c3ccc(C(F)(F)F)nc3)c3cncn3C)cc2c1Cl` (single isomer, unassigned) [Example 79b, [4-Chloro-2-methoxy-3-(2-methoxyethoxy)quinolin-6-yl](1-methyl-1H-imidazol-5-yl)[6-(trifluoromethyl)pyridin-3-yl]methanol], the “RORγt (LBD) Reporter Assay, % inhibition @ 6 μM” value (“RORγt … % inhibition @ 6 μM” for short) came to 30%.

As to `COCCOc1c(OC)nc2ccc(C(O)(c3ccc(C(F)(F)F)nc3)c3cncn3C)cc2c1Cl` (single isomer, unassigned) [Example 79c, [4-Chloro-2-methoxy-3-(2-methoxyethoxy)quinolin-6-yl](1-methyl-1H-imidazol-5-yl)[6-(trifluoromethyl)pyridin-3-yl]methanol], the “RORγt … % inhibition @ 6 μM” value was −2.5%.

Regarding `COc1nc2ccc(C(O)(c3ccc(C)nc3C)c3cnnn3C)cc2c(Cl)c1CN1CCC(C(F)(F)F)CC1` (single isomer, unassigned) [Example 103c, (4-Chloro-2-methoxy-3-((4-(trifluoromethyl)piperidin-1-yl)methyl)quinolin-6-yl)(2,6-dimethylpyridin-3-yl)(1-methyl-1H-1,2,3-triazol-5-yl)methanol], the “RORγt … % inhibition @ 6 μM” value stood at 99%.

Regarding `COc1nc2ccc(C(O)(c3ccc(C)nc3C)c3cnnn3C)cc2c(Cl)c1CN1CCC(n2cccn2)CC1` (single isomer, unassigned) [Example 105b, (3-((4-(1H-Pyrazol-1-yl)piperidin-1-yl)methyl)-4-chloro-2-methoxyquinolin-6-yl)(2,6-dimethylpyridin-3-yl)(1-methyl-1H-1,2,3-triazol-5-yl)methanol], the “RORγt … % inhibition @ 6 μM” value was 33%.

With `COc1nc2ccc(C(O)(c3ccc(C)nc3C)c3cnnn3C)cc2c(Cl)c1CN1CCC(n2cccn2)CC1` (single isomer, unassigned) [Example 105c, (3-((4-(1H-Pyrazol-1-yl)piperidin-1-yl)methyl)-4-chloro-2-methoxyquinolin-6-yl)(2,6-dimethylpyridin-3-yl)(1-methyl-1H-1,2,3-triazol-5-yl)methanol], the “RORγt … % inhibition @ 6 μM” value stood at 87%.

Turning to `COc1nc2ccc(C(O)(c3ccc(C)nc3C)c3cnnn3C)cc2c(Cl)c1CN1CCC(F)(F)CC1` (single isomer, unassigned) [Example 107c, (4-Chloro-3-((4,4-difluoropiperidin-1-yl)methyl)-2-methoxyquinolin-6-yl)(2,6-dimethylpyridin-3-yl)(1-methyl-1H-1,2,3-triazol-5-yl)methanol], the “RORγt … % inhibition @ 6 μM” value is given as 54%.

On to `COc1nc2ccc(C(O)(c3ccc(C)nc3C)c3cnnn3C)cc2c(Cl)c1CN1CCC(F)CC1` (single isomer, unassigned) [Example 108b, (4-Chloro-3-((4-fluoropiperidin-1-yl)methyl)-2-methoxyquinolin-6-yl)(2,6-dimethylpyridin-3-yl)(1-methyl-1H-1,2,3-triazol-5-yl)methanol], for which the “RORγt … % inhibition @ 6 μM” value is on record as 6%.

In the case of `COc1nc2ccc(C(O)(c3ccc(C)nc3C)c3cnnn3C)cc2c(Cl)c1CN1CCC(F)CC1` (single isomer, unassigned) [Example 108c, (4-Chloro-3-((4-fluoropiperidin-1-yl)methyl)-2-methoxyquinolin-6-yl)(2,6-dimethylpyridin-3-yl)(1-methyl-1H-1,2,3-triazol-5-yl)methanol], the “RORγt … % inhibition @ 6 μM” value turned out to be 14%.

For `COc1nc2ccc(C(O)(c3ccc(C(F)(F)F)nc3)c3cncn3C)cc2c(Cl)c1CN1CCC(C(F)(F)F)CC1` (single isomer, unassigned) [Example 112c, (4-Chloro-2-methoxy-3-((4-(trifluoromethyl)piperidin-1-yl)methyl)quinolin-6-yl)(1-methyl-1H-imidazol-5-yl)(6-(trifluoromethyl)pyridin-3-yl)methanol], the “RORγt … % inhibition @ 6 μM” value turned out to be 96%.

In the case of `COc1nc2ccc(C(O)(c3ccc(C)nc3C)c3cnnn3C)cc2c(Cl)c1CN1CC(C(F)(F)F)C1` (single isomer, unassigned) [Example 114c, (4-Chloro-2-methoxy-3-((3-(trifluoromethyl)azetidin-1-yl)methyl)quinolin-6-yl)(2,6-dimethylpyridin-3-yl)(1-methyl-1H-1,2,3-triazol-5-yl)methanol], the “RORγt … % inhibition @ 6 μM” value is reported as 72%.

The same assay, now with this note: HEK-293T, read-out: RORγt (LBD) Reporter Assay, % inhibition @ 6 μM, @ 6 μM.
In general, inhibition refers to the change of the read-out against control, counted positive when it falls. Regarding `COc1nc2ccc(C(O)(c3ccnc(C(F)(F)F)c3)c3cncn3C)cc2c(Cl)c1CN1CCC(C(F)(F)F)CC1` (single isomer, unassigned) [Example 100b, (4-Chloro-2-methoxy-3-((4-(trifluoromethyl)piperidin-1-yl)methyl)quinolin-6-yl)(1-methyl-1H-imidazol-5-yl)(2-(trifluoromethyl)pyridin-4-yl)methanol], the inhibition at 6 µM came out at 90%.

For the molecule `COc1nc2ccc(C(O)(c3ccc(C)nc3C)c3cnnn3C)cc2c(Cl)c1CN1CCC(C(F)(F)F)CC1` (single isomer, unassigned) [Example 103b, (4-Chloro-2-methoxy-3-((4-(trifluoromethyl)piperidin-1-yl)methyl)quinolin-6-yl)(2,6-dimethylpyridin-3-yl)(1-methyl-1H-1,2,3-triazol-5-yl)methanol], the inhibition at 6 µM was 90%.

For the molecule `COc1nc2ccc(C(O)(c3cnnn3C)c3cnc(C)n3C)cc2c(Cl)c1CN1CCC(C(F)(F)F)CC1` (single isomer, unassigned) [Example 106b, (4-Chloro-2-methoxy-3-((4-(trifluoromethyl)piperidin-1-yl)methyl)quinolin-6-yl)(1,2-dimethyl-1H-imidazol-5-yl)(1-methyl-1H-1,2,3-triazol-5-yl)methanol], the inhibition at 6 µM worked out at 103%.

As for `COc1nc2ccc(C(O)(c3ccc(C)nc3C)c3cnnn3C)cc2c(Cl)c1CN1CCC(F)(F)CC1` (single isomer, unassigned) [Example 107b, (4-Chloro-3-((4,4-difluoropiperidin-1-yl)methyl)-2-methoxyquinolin-6-yl)(2,6-dimethylpyridin-3-yl)(1-methyl-1H-1,2,3-triazol-5-yl)methanol], the inhibition at 6 µM was found to be 38%.

Turning to `COc1nc2ccc(C(O)(c3ccc(C(F)(F)F)nc3)c3cncn3C)cc2c(Cl)c1CN1CCC(C(F)(F)F)CC1` (single isomer, unassigned) [Example 112b, (4-Chloro-2-methoxy-3-((4-(trifluoromethyl)piperidin-1-yl)methyl)quinolin-6-yl)(1-methyl-1H-imidazol-5-yl)(6-(trifluoromethyl)pyridin-3-yl)methanol], the inhibition at 6 µM stood at 97%.

On to `COc1nc2ccc(C(O)(c3ccc(C)nc3C)c3cnnn3C)cc2c(Cl)c1CN1CC(C(F)(F)F)C1` (single isomer, unassigned) [Example 114b, (4-Chloro-2-methoxy-3-((3-(trifluoromethyl)azetidin-1-yl)methyl)quinolin-6-yl)(2,6-dimethylpyridin-3-yl)(1-methyl-1H-1,2,3-triazol-5-yl)methanol], for which the inhibition at 6 µM was found to be 60%.

Turning to `COc1nc2ccc(C(O)(c3cncn3C)C3CCN(C(C)=O)CC3)cc2c(Cl)c1CC1CCOCC1` (stereo not shown) [Example 5a, 1-(4-((4-Chloro-2-methoxy-3-((tetrahydro-2H-pyran-4-yl)methyl)quinolin-6-yl)(hydroxy)(1-methyl-1H-imidazol-5-yl)methyl)piperidin-1-yl)ethanone], the inhibition at 6 µM came out at 45%.

`COc1nc2ccc(C(O)(c3ccc(C)nc3C)c3cnnn3C)cc2c(Cl)c1C` (stereo not shown) [Example 12a, (4-Chloro-2-methoxy-3-methylquinolin-6-yl)(2,6-dimethylpyridin-3-yl)(1-methyl-1H-1,2,3-triazol-5-yl)methanol]: the inhibition at 6 µM was determined as 93%.

As for `COc1nc2ccc(C(O)(c3ccc(C)nc3C)c3cnnn3C)cc2c(Cl)c1CC1CC1` (stereo not shown) [Example 14a, (4-Chloro-3-(cyclopropylmethyl)-2-methoxyquinolin-6-yl)(2,6-dimethylpyridin-3-yl)(1-methyl-1H-1,2,3-triazol-5-yl)methanol], the inhibition at 6 µM was determined as 99%.

With `COc1nc2ccc(C(O)(c3ccc(C)nc3C)c3cnnn3C)cc2c(Cl)c1OCc1ncccn1` (stereo not shown) [Example 66a, [4-Chloro-2-methoxy-3-(pyrimidin-2-ylmethoxy)quinolin-6-yl](2,6-dimethylpyridin-3-yl)(1-methyl-1H-1,2,3-triazol-5-yl)methanol], the inhibition at 6 µM was -112%.

The values are drawn from US10201546B2, “Quinolinyl modulators of RORγt” (Janssen Pharmaceutica NV, priority 2013, dated 2019).
